Assay results as given in patent US20030035812A1, “Immune enhancement compositions and use thereof” (priority 2000, published 2003).

Tests used:
Sendai virus [1] = assay: Circulating antibody unit (HIU) in serum by hemagglutination inhibition (HI) reaction after vaccine administration; type: in vivo, mouse; conditions: 500 CIU vaccine nasally
Protocol: The provitamins prepared to have a composition in the following Formulation Examples 1 to 4 were individually or in combination (hereinafter referred to as “provitamin”) dissolved in a phosphate buffered saline (PBS) to a concentration of 0.5% and then continuously administered perorally or peritoneally to a mouse (ICR, 3 weeks old, male) from two weeks before the administration of a vaccine. The sample was administered such that APM per day was 80 mg/kg-body weight in the case of peroral administration and the dose per day was 40 mg/kg-body weight in the case of injection.
The vaccine used here was TR-5 strain which is an attenuated strain of Sendai virus, and 500 CIU (cell infectious unit) thereof was nasally administered to a mouse under ether anesthesia. That is, a stock solution (10^6 CIU/ml) of TR-5 strain was diluted with PBS and 50 μl of each sample was nasally administered. After the administration of vaccine, the serum was sampled in aging (inoculation day, after 7 days, after 14 days and after 21 days) and the antiviral antibody unit in the serum was measured by the hemagglutination inhibition (HI) reaction which inhibits the hemagglutination (HA) reaction.
The HA reaction is a reaction where a virus particle or an HA antigen adsorbs to an erythrocyte and combines the erythrocytes with each other to cause hemagglutination. In the measurement of the HA unit, 2-fold step dilution series of a virus solution are prepared, a constant amount of erythrocytes is added to each dilution and after the passing of a predetermined time, the agglutination image is examined. The HA unit (HAU) is the reciprocal of the highest dilution number in a test tube showing agglutination positive. The HA reaction is inhibited by previously adding an antiviral antibody to the virus solution. This is the HI reaction.
To 25 μl of a serum subjected to 2-fold step dilution, 25 μl of a virus solution adjusted to 16 HAU was added and allowed to stand at room temperature for 1 hour. Subsequently, 50 μl of a 0.5% chicken erythrocyte suspension was added and allowed to stand at 4° C. for 1 hour. Thereafter, the HI unit was determined.

macrophages = assay: Number of macrophages sampled from the abdominal cavity 14 days after vaccine inoculation; type: in vivo, mouse; conditions: 500 CIU vaccine, 14 days after inoculation
Protocol: (§1) The administration of provitamin and inoculation of a vaccine (500 CIU) were performed in the same manner as in Example 1. 14 Days after the inoculation of the vaccine, macrophages were sampled from the abdominal cavity of the mouse and the number of macrophages was counted through a microscope. Also, the activity of the macrophage was examined as follows. Fibrosarcoma SMT-5 (target cell) and the sampled macrophages (effector cell) were mixed at a ratio of 1:7 and cultured in CO2 medium for 24 hours. 8 Hours before the completion of culture, ^3H-thymidine was added and the amount of ^3H-thymidine taken up into the residual target cells was measured by a liquid scintillation counter. From the value obtained, the activity of macrophage was determined. The amount of ^3H-thymidine in the control group was the amount of ^3H-thymidine taken up into the target cells where the macrophages were not added.

[2] = system: Fibrosarcoma SMT-5 (target cell); assay: Activity of sampled macrophages against target cells (3H-thymidine uptake); type: cell-based, mouse; conditions: 500 CIU vaccine, macrophages sampled day 14, target:effector 1:7, 24 hours
Protocol: as §1

Sendai virus [3] = assay: Secretory IgA induction by Sendai virus live vaccine, trachea and bronchia wash, ELISA; type: in vivo, mouse; conditions: 500 CIU vaccine, 14 days after inoculation
Protocol: The administraion of provitamin and inoculation of a vaccine were performed in the same manner as in Example 1. 14 Days after the inoculation of vaccine, the mouse was sacrificed, the trachea and bronchia were twice washed with 1 ml of PBS (phosphate buffered saline), and IgA recovered in PBS was measured by the enzyme linked immunosorbent assay (ELISA).
Sendai virus was fixed on a plate and reacted with a test solution. Thereafter, peroxidase marker anti-mouse IgA immunoglobulin was reacted and then phenylenediamine 2HCl was added to cause coloration. OD 492 was measured and from the calibration curve obtained based on the standard IgA, the IgA amount in the test solution was determined.

[4] = system: Sendai virus strongly toxic strain; assay: Survival rate after nasal infection with Sendai virus strongly toxic strain; type: in vivo, mouse; conditions: challenge 15 LD50 at day 14, 20 days after infection
Protocol: The administration of provitamin and inoculation of a vaccine were performed in the same manner as in Example 1, and 14 days after the inoculation of attenuated vaccine, Sendai virus strongly toxic strain (1.7×10^7 CIU/ml) was subjected to 15-hold dilution in PBS. Subsequently, 70 μl of the dilution (about 8×10^4 CIU:15 LD50) was nasally infected to a mouse under ether anesthesia and 20 days after the infection with the strongly toxic strain, the survival rate of mice was examined.
The test solution was step-diluted and each dilution was used for a group of animals. The life and death were examined and the point of dilution degree where 50% of death was recognized was designated as LD50.

[5] = peritoneal administration of provitamin 40 mg/kg per day, day 0
[6] = peritoneal administration of provitamin 40 mg/kg per day, day 7
[7] = peritoneal administration of provitamin 40 mg/kg per day, day 14
[8] = peritoneal administration of provitamin 40 mg/kg per day, day 21
[9] = peroral administration of provitamin 80 mg/kg per day, day 0 after inoculation
[10] = peroral administration of provitamin 80 mg/kg per day, day 7
[11] = peroral administration of provitamin 80 mg/kg per day, day 14
[12] = peroral administration of provitamin 80 mg/kg per day, day 21
[13] = peroral, amount of vaccine inoculated 0 CIU
[14] = peroral, amount of vaccine inoculated 50 CIU
[15] = peroral, amount of vaccine inoculated 500 CIU

| Compound | HIU (Sendai virus [1]; [5]) [HIU] | HIU (Sendai virus [1]; [6]) [HIU] | HIU (Sendai virus [1]; [7]) [HIU] | HIU (Sendai virus [1]; [8]) [HIU] | HIU (Sendai virus [1]; [9]) [HIU] | HIU (Sendai virus [1]; [10]) [HIU] | HIU (Sendai virus [1]; [11]) [HIU] | HIU (Sendai virus [1]; [12]) [HIU] | Macrophage/Body (macrophages; peritoneal route) | Macrophage/Body (macrophages; peroral route) | Macrophage Activity ([2]; peritoneal route) | Macrophage Activity ([2]; peroral route) | IgA (Sendai virus [3]; peritoneal route) [U/μg] | IgA (Sendai virus [3]; peroral route) [U/μg] | Survival Rate ([4]; peritoneal, amount of vaccine inoculated 0 CIU) | Survival Rate ([4]; peritoneal, amount of vaccine inoculated 50 CIU) | Survival Rate ([4]; peritoneal, amount of vaccine inoculated 500 CIU) | Survival Rate [4, 13] | Survival Rate [4, 14] | Survival Rate [4, 15] |
| --- | --- | --- | --- | --- | --- | --- | --- | --- | --- | --- | --- | --- | --- | --- | --- | --- | --- | --- | --- | --- |
| O=C1O[C@H]([C@@H](O)CO)C(O)=C1OP(=O)(O)O [Formulation Example 1, L-ascorbic acid-2-monophosphate] | <16 | 16 | 32 | 64 | <16 | <16 | 16 | 64 | 9.1 × 10^6 | 6.8 × 10^6 | 22.1 | 20.5 | 69 | 51 | 0/10 | 8/10 | 8/10 | 0/10 | 9/10 | 9/10 |
| O=C1O[C@H]([C@@H](O)CO)C(O)=C1OP(=O)(O)O [Formulation Example 2, L-ascorbic acid-2-monophosphate] | <16 | <16 | 32 | 64 | <16 | <16 | 16 | 64 | – | 6.5 × 10^6 | – | 20.2 | – | 69 | – | – | – | 1/10 | 9/10 | 10/10 |
